Laboratory results published in ChEMBL document CHEMBL3132769, “Fragment growing to retain or alter the selectivity of anchored kinase hinge-binding fragments” (Medchemcomm, 2014).

Experiments:
[1] = target: T1, MAP kinase-activated protein kinase 5 (Homo sapiens) (UniProt Q8IW41); assay: Inhibition of human full length PRAK expressed in baculovirus assessed as substrate phosphorylation using fluorescence-labelled peptides as substrate at 95 uM after 90 mins by microfluidic peptide phosphorylation assay
T1 sequence (whole entry): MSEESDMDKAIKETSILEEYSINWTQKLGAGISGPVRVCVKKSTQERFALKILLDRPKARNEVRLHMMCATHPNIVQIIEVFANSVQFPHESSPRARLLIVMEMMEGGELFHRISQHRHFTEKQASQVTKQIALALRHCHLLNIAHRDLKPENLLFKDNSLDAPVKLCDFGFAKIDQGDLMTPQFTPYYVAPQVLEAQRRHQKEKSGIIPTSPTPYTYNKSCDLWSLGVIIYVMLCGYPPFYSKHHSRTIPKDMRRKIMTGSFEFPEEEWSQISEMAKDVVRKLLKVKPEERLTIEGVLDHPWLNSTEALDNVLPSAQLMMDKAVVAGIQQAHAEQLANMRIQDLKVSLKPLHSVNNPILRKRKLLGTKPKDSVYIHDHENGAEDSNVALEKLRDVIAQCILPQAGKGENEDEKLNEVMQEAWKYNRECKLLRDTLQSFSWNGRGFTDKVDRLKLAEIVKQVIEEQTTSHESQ

Homo sapiens = species: Homo sapiens; assay: Inhibition of human full length PKA expressed in baculovirus assessed as substrate phosphorylation using fluorescence-labelled peptides as substrate at 95 uM after 90 mins by microfluidic peptide phosphorylation assay
[2] = target: Tyrosine-protein kinase HCK (Homo sapiens) (UniProt P08631); assay: Inhibition of human HCK catalytic domain expressed in baculovirus assessed as substrate phosphorylation using fluorescence-labelled peptides as substrate at 0.2 uM after 90 mins by microfluidic peptide phosphorylation assay
[3] = target: Calcium/calmodulin-dependent protein kinase type II subunit delta (Homo sapiens) (UniProt Q13557); assay: Inhibition of human full length CAMK2D expressed in baculovirus assessed as substrate phosphorylation using fluorescence-labelled peptides as substrate at 0.2 uM after 90 mins by microfluidic peptide phosphorylation assay
[4] = target: T2, Aurora kinase A (Homo sapiens) (UniProt O14965); assay: Inhibition of human full length AurA expressed in baculovirus assessed as substrate phosphorylation using fluorescence-labelled peptides as substrate at 8 uM after 90 mins by microfluidic peptide phosphorylation assay
T2 sequence (whole entry): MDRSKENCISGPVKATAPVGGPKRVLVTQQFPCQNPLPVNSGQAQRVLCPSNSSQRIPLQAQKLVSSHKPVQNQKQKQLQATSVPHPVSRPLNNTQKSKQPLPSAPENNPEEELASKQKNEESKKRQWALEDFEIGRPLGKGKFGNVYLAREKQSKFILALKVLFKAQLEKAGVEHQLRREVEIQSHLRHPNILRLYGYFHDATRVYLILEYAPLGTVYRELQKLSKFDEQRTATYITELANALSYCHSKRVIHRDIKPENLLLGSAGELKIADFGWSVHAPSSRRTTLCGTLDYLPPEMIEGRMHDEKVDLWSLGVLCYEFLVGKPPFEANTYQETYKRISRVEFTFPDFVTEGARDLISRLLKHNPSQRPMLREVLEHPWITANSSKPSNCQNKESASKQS

[5] = target: Cyclin-dependent kinase 2 (Homo sapiens) (UniProt P24941); assay: Inhibition of human full length CDK2 expressed in baculovirus assessed as substrate phosphorylation using fluorescence-labelled peptides as substrate at 8 uM after 90 mins by microfluidic peptide phosphorylation assay
[6] = target: Dual specificity tyrosine-phosphorylation-regulated kinase 1A (Rattus norvegicus) (UniProt Q63470); assay: Inhibition of rat full length DYRK1a expressed in Escherichia coli cell assessed as substrate phosphorylation using fluorescence-labelled peptides as substrate at 0.06 uM after 90 mins by microfluidic peptide phosphorylation assay
[7] = target: T3, Testis-specific serine/threonine-protein kinase 2 (Homo sapiens) (UniProt Q96PF2); settings: 0.1 uM
T3 sequence (whole entry): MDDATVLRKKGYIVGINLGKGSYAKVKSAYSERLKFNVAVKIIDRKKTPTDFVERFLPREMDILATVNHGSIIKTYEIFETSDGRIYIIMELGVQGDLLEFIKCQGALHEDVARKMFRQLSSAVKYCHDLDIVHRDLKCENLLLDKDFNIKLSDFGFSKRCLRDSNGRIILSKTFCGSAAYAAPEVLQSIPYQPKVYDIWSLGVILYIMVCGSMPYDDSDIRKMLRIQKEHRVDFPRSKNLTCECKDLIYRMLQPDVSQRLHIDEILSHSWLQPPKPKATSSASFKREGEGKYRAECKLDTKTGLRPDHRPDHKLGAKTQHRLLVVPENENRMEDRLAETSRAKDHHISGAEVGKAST
Description: Inhibition of human full length TSSK2 expressed in baculovirus assessed as substrate phosphorylation using fluorescence-labelled peptides as substrate at 0.1 uM after 90 mins by microfluidic peptide phosphorylation assay

[8] = target: T4, Serine/threonine-protein kinase Sgk3 (Homo sapiens) (UniProt Q96BR1); assay: Inhibition of human full length SGK3 expressed in baculovirus assessed as substrate phosphorylation using fluorescence-labelled peptides as substrate at […] after 90 mins by microfluidic peptide phosphorylation assay
T4 sequence (whole entry): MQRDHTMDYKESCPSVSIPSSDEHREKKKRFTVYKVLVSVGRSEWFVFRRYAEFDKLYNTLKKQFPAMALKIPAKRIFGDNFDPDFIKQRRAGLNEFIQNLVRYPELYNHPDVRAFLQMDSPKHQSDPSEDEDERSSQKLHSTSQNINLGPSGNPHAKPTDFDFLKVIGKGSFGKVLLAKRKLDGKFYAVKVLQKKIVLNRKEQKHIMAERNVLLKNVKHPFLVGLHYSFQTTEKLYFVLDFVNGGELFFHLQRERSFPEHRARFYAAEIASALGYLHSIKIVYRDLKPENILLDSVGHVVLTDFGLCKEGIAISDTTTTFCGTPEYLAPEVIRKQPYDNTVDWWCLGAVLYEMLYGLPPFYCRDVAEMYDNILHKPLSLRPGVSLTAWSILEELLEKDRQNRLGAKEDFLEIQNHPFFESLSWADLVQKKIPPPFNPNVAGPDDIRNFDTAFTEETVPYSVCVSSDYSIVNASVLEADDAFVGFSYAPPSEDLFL

[9] = target: Mitogen-activated protein kinase 14 (Homo sapiens) (UniProt Q16539); assay: Inhibition of human truncated p38 alpha expressed in Escherichia coli cell assessed as substrate phosphorylation using fluorescence-labelled peptides as substrate at […] after 90 mins by microfluidic peptide phosphorylation assay
[10] = target: Hepatocyte growth factor receptor (Homo sapiens) (UniProt P08581); assay: Inhibition of human MET cytoplasmic domain expressed in baculovirus assessed as substrate phosphorylation using fluorescence-labelled peptides as substrate at […] after 90 mins by microfluidic peptide phosphorylation assay
Sequence of Hepatocyte growth factor receptor (Homo sapiens) (P08581 whole entry, the tested form may be a part): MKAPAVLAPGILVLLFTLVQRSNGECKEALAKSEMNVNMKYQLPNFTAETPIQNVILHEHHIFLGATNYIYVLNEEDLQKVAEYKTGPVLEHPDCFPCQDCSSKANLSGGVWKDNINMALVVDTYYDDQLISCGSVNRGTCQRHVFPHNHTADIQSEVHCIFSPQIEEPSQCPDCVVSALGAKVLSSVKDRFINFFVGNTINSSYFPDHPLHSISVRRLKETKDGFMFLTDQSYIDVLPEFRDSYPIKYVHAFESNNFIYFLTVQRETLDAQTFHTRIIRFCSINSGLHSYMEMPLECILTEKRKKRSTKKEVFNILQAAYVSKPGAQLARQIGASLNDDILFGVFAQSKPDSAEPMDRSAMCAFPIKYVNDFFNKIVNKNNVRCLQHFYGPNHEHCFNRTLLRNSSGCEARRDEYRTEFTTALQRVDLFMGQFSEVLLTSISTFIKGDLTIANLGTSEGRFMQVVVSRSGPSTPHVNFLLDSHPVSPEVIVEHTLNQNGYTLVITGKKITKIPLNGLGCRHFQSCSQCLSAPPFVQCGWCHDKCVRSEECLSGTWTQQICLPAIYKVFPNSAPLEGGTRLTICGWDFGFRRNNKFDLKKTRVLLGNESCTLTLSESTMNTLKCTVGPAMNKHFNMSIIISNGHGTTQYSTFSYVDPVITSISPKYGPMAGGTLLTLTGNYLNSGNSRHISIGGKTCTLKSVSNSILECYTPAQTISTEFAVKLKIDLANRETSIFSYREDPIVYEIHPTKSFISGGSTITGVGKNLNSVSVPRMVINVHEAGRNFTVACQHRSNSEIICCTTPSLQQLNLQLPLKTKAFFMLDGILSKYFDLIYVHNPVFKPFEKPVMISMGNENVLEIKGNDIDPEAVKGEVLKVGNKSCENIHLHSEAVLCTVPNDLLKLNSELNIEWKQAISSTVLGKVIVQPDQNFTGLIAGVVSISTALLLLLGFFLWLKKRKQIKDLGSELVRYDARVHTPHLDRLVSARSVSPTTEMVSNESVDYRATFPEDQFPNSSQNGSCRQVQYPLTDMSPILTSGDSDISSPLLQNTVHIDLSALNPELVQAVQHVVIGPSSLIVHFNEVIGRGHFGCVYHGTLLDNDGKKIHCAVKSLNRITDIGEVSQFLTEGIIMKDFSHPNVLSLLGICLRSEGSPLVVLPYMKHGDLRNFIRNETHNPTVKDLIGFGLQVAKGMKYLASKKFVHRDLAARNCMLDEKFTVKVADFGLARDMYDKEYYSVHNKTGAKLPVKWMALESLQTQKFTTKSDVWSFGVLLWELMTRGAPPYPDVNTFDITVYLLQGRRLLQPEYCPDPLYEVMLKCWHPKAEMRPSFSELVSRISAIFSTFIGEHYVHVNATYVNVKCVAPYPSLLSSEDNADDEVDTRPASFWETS

Sequence of Tyrosine-protein kinase HCK (Homo sapiens) (P08631 2-526 limits assumed): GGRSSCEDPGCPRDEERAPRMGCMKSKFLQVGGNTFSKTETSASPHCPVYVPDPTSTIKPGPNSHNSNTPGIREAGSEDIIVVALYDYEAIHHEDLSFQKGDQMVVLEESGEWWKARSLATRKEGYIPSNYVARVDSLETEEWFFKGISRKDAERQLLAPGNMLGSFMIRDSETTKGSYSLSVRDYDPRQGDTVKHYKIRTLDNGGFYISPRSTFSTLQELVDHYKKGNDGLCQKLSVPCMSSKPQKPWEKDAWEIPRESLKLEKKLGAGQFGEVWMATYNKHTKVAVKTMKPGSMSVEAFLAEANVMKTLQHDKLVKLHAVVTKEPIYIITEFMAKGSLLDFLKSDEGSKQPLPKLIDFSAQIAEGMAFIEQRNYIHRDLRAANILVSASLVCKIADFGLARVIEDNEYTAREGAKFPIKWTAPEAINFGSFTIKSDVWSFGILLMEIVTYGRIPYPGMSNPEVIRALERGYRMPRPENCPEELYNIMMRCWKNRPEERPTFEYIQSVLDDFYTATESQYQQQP
Sequence of Calcium/calmodulin-dependent protein kinase type II subunit delta (Homo sapiens) (Q13557 whole entry): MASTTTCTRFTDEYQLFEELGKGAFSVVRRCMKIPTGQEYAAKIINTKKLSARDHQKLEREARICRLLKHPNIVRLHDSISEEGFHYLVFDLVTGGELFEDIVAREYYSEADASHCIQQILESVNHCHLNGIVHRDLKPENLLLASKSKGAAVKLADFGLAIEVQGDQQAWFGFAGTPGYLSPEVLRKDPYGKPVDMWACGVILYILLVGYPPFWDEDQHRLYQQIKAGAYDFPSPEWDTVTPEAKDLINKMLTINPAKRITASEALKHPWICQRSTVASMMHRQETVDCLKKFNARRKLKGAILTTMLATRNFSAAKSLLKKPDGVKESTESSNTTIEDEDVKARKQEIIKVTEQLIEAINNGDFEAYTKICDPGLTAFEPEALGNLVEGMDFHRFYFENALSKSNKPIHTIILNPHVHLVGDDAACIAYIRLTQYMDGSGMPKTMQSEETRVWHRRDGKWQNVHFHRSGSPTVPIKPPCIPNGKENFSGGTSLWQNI
Sequence of Mitogen-activated protein kinase 14 (Homo sapiens) (Q16539 whole entry, the tested form may be a part): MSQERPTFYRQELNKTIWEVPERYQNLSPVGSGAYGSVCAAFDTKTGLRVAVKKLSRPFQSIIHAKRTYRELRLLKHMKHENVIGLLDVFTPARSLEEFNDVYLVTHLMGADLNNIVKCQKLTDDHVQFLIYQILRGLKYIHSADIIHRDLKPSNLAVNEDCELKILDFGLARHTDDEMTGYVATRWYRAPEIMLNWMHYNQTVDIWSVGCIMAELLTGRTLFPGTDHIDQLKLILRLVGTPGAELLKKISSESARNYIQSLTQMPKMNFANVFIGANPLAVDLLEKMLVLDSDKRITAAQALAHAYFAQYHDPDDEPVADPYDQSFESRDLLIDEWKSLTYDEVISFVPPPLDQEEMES

NCCc1ccc(-c2ncnc3[nH]cnc23)cc1
inhibition [1]: 35% | inhibition (Homo sapiens): 97.5%

Clc1ccc(C2(c3ccc(-c4ncnc5[nH]cnc45)cc3)CCNCC2)cc1
inhibition [2]: 35% | inhibition [3]: 16%

NCC1CCN(c2ncnc3[nH]ccc23)CC1
inhibition [4]: 87.5% | inhibition [5]: 7%

NC1(Cc2ccc(Cl)cc2)CCN(c2ncnc3[nH]ccc23)CC1
inhibition [6]: 0%

C[C@H](CN(C)C)Oc1nc(Nc2cc3cccc(Cl)c3cn2)cnc1C#N
inhibition [7]: 0%

COC(=O)c1cnc(Nc2cnc(C#N)cn2)cc1NCC1CCNCC1
inhibition [8]: 5% | inhibition [9]: 2% | inhibition [10]: 2.5%
